The nature of series [1]: LogP by HPLC on reversed phase columns (EEC directive 79/831 Annex V.A8). The series is classed as physicochemical. The settings on record: method [a]: LC-UV, acidic range, 0.1% formic acid in water and acetonitrile, linear gradient 10% to 95% acetonitrile; for chromatographic logP: reversed phase HPLC column. Here is the method: [table] If more than one LogP value is available within the same method, all the values are given and separated by “+”. Calibration was done with straight-chain alkan2-ones (with 3 to 16 carbon atoms) with known LogP values (measurement of LogP values using retention times with linear interpolation between successive alkanones). Lambda-max-values were determined using UV-spectra from 200 nm to 400 nm and the peak values of the chromatographic signals.

Series [2] deals with Colletotrichum lindemuthianum. As to the kind of experiment: Colletotrichum lindemuthianum in vitro cell test. It is filed as cell-based. The following applies: 144 h, liquid culture with spores, 6 days incubation, read-out: efficacy (inhibition of fungal growth); for inhibition at 4 ppm: 4 ppm of active ingredient; for inhibition at 20 ppm: 20 ppm of active ingredient. Here is the method:
Example E: Colletotrichum lindemuthianum In Vitro Cell Test • Solvent: DMSO • Culture medium: 14.6 g anhydrous D-glucose (VWR), 7.1 g Mycological Peptone (Oxoid), 1.4 g granulated Yeast Extract (Merck), QSP 1 liter • Inoculum: spores suspension Fungicides were solubilized in DMSO and the solution used to prepare the required range of concentrations. The final concentration of DMSO used in the assay was ≤[…]1%. A spore suspension of C. lindemuthianum was prepared and diluted to the desired spore density. Fungicides were evaluated for their ability to inhibit spores germination and mycelium growth in liquid culture assay. The compounds were added in the desired concentration to the culture medium with spores. After 6 days incubation, fungi-toxicity of compounds was determined by spectrometric measurement of mycelium growth. Inhibition of fungal growth was determined by comparing the absorbance values in wells containing the fungicides with the absorbance in control wells without fungicides.

Turning to `FC(F)(F)c1nc(-c2cnc(Nc3ccc4ncccc4c3)nc2)no1` [Compound I-87], the LogP in series [1] was 1.98^[a].

Regarding `N#Cc1cccc(Nc2ncc(-c3noc(C(F)(F)Cl)n3)cn2)c1` [Compound I-82], the LogP in series [1] is 3.72^[a].

Take `FC(F)(Cl)c1nc(-c2cnc(Nc3ccc(Cl)cc3)nc2)no1` [Compound I-67]: the LogP in series [1] was 4.56^[a].

Take `CC(=O)Nc1cccc(Nc2ncc(-c3noc(C(F)(F)F)n3)cn2)c1` [Compound I-50]: the LogP in series [1] is 2.59^[a].

As for `FC(F)(F)c1nc(-c2cnc(N[C@@H]3CCOc4ccccc43)nc2)no1` [Compound I-01, N-[(4R)-3,4-dihydro-2H-chromen-4-yl]-5-[5-(trifluoromethyl)-1,2,4-oxadiazol-3-yl]pyrimidin-2-amine], in series [2], the inhibition at 4 ppm is 70 to 79% and the inhibition at 20 ppm lay in the range of 80 to 89%.

For `FC(F)(F)c1nc(-c2cnc(NC3(c4ccccn4)CCC3)nc2)no1` [Compound I-23], the LogP in series [1] was 1.96^[a].

Molecule `FC(F)(F)c1nc(-c2ccc(Nc3ncccn3)cc2)no1` [Compound I-05, N-{4-[5-(trifluoromethyl)-1,2,4-oxadiazol-3-yl]phenyl}pyrimidin-2-amine] came in with a chromatographic logP in series [1] of 3.5. Further, in series [2], the inhibition at 4 ppm lay within 80 to 89% and the inhibition at 20 ppm lay in the range of 90 to 100%.

On to `FC(F)(F)c1nc(-c2cnc(NC3CCOC3)nc2)no1` (stereo not shown) [Compound I-10], for which, in series [1], the LogP is 2.35^[a].

As for `Cc1cccc(Nc2ccc(-c3noc(C(F)(F)F)n3)cc2)c1` [Compound I-35], the LogP in series [1] was 4.93^[a].

On to `FC(F)(Cl)c1nc(-c2cnc(Nc3ccc4ncccc4c3)nc2)no1` [Compound I-90], for which the LogP in series [1] is 2.13^[a].

Turning to `CC1(Nc2ncc(-c3noc(C(F)(F)Cl)n3)cn2)CC1` [Compound I-14], the LogP in series [1] was 3.25^[a].

On to `FC(F)(Cl)c1nc(-c2cnc(Nc3cccc(Cl)c3)nc2)no1` [Compound I-79], for which, in series [1], the LogP was 4.56^[a].

Turning to `N#Cc1cccc(Nc2ncc(-c3noc(C(F)(F)F)n3)cn2)c1` [Compound I-51], the LogP in series [1] is 3.52^[a].

For `Fc1ccccc1Nc1ncc(-c2noc(C(F)(F)F)n2)cn1` [Compound I-04, N-(2-Fluorophenyl)-5-[5-(trifluoromethyl)-1,2,4-oxadiazol-3-yl]pyrimidin-2-amine], in series [2], the inhibition at 4 ppm is 80 to 89% and the inhibition at 20 ppm lay in the range of 80 to 89%.

As for `FC(F)(Cl)c1nc(-c2cnc(Nc3cccc4c3CCC4)nc2)no1` [Compound I-73], the LogP in series [1] is 4.69^[a].

`FC(F)(Cl)c1nc(-c2cnc(Nc3ccsc3)nc2)no1` [Compound I-65]: in series [1], the LogP is 3.92^[a].

`FC(F)(Cl)c1nc(-c2cnc(Nc3ccccc3Cl)nc2)no1` [Compound I-77]: the LogP in series [1] is 4.46^[a].

In turn, `CC(=O)N(c1ncc(-c2noc(C(F)(F)F)n2)cn1)c1ccccc1F` [Compound I-07, N-(2-fluorophenyl)-N-{5-[5-(trifluoromethyl)-1,2,4-oxadiazol-3-yl]pyrimidin-2-yl}acetamide] yielded a chromatographic logP in series [1] of 3.23.

Regarding `Cc1cccc(Nc2ncc(-c3noc(C(F)(F)Cl)n3)cn2)c1` [Compound I-68], the LogP in series [1] was 4.34^[a].

As for `FC(F)(F)c1cccc(Nc2ncc(-c3noc(C(F)(F)Cl)n3)cn2)c1` [Compound I-85], in series [1], the LogP was 4.69^[a].

For `FC(F)(F)c1nc(-c2cnc(NC3CC3)nc2)no1` [Compound I-31], the LogP in series [1] is 2.57^[a].

In the case of `FC(F)(Cl)c1nc(-c2cnc(Nc3ccccc3)nc2)no1` [Compound I-71], in series [1], the LogP is 3.96^[a].

For the molecule `Fc1ccc(Nc2ncc(-c3noc(C(F)(F)F)n3)cn2)c(F)c1` [Compound I-42], the LogP in series [1] was 3.70^[a].

`CC(=O)Nc1cccc(Nc2ncc(-c3noc(C(F)(F)Cl)n3)cn2)c1` [Compound I-74]: the LogP in series [1] was 2.75^[a].

`FC(F)(F)c1nc(-c2cnc(Nc3nc4c(s3)CCC4)nc2)no1` [Compound I-86]: the LogP in series [1] is 3.81^[a].

Regarding `Fc1ccc(Nc2ncc(-c3noc(C(F)(F)Cl)n3)cn2)cc1` [Compound I-72], in series [1], the LogP was 3.99^[a].

`FC(F)(F)c1nc(-c2cnc(Nc3cccc4c3CCC4)nc2)no1` [Compound I-60]: in series [1], the LogP is 4.44^[a].

In the case of `FC(F)(F)Oc1ccccc1Nc1ccc(-c2noc(C(F)(F)F)n2)cc1` [Compound I-39], the LogP in series [1] is 5.11^[a].

With `FC(F)(Cl)c1nc(-c2cnc(NC3Cc4ccccc4C3)nc2)no1` [Compound I-19], the LogP in series [1] was 4.49^[a].

On to `O=S1(=O)CCC(Nc2ncc(-c3noc(C(F)(F)Cl)n3)cn2)C1` (stereo not shown) [Compound I-30], for which the LogP in series [1] was 2.32^[a].

`FC(F)Oc1ccc(Nc2ncc(-c3noc(C(F)(F)Cl)n3)cn2)cc1` [Compound I-69]: the LogP in series [1] was 4.11^[a].

As for `Cc1cccc(Nc2ncc(-c3noc(C(F)(F)F)n3)cn2)c1` [Compound I-56], the LogP in series [1] is 4.13^[a].

For `O=S1(=O)CCC(Nc2ncc(-c3noc(C(F)(F)F)n3)cn2)C1` (stereo not shown) [Compound I-22], the LogP in series [1] is 2.15^[a].

Consider `FC(F)(F)c1nc(-c2cnc(Nc3cccc(Cl)c3)nc2)no1` [Compound I-46], for which the LogP in series [1] is 4.34^[a].

On to `FC(F)(Cl)c1nc(-c2cnc(NC3CCOCC3)nc2)no1` [Compound I-15], for which the LogP in series [1] was 2.76^[a].

Turning to `N#CCc1ccc(Nc2ncc(-c3noc(C(F)(F)F)n3)cn2)cc1` [Compound I-48], the LogP in series [1] was 3.27^[a].

Take `Fc1cccc(Nc2ncc(-c3noc(C(F)(F)Cl)n3)cn2)c1` [Compound I-76]: in series [1], the LogP was 4.18^[a].

As for `CC(=O)N1CCC(Nc2ncc(-c3noc(C(F)(F)Cl)n3)cn2)CC1` [Compound I-20], the LogP in series [1] was 2.32^[a].

For `FC(F)(F)c1nc(-c2ccc(Nc3ccccc3)cc2)no1` [Compound I-37], the LogP in series [1] was 4.56^[a].

For `FC(F)(F)c1nc(-c2cnc(Nc3ccc(Cl)cc3)nc2)no1` [Compound I-62], in series [1], the LogP was 4.34^[a].

As to `COc1ccc(Nc2ncc(-c3noc(C(F)(F)F)n3)cn2)cc1` [Compound I-59], the LogP in series [1] was 3.57^[a].

As to `CN(c1ncc(-c2noc(C(F)(F)Cl)n2)cn1)C1CCCC1` [Compound I-12], the LogP in series [1] was 5.42^[a].

As for `FC(F)(Cl)c1nc(-c2cnc(NC3CCCC3)nc2)no1` [Compound I-28], the LogP in series [1] is 4.08^[a].

With `FC(F)(Cl)c1nc(-c2cnc(NC3CC3)nc2)no1` [Compound I-27], in series [1], the LogP was 2.76^[a].

In the case of `COc1ccccc1Nc1ncc(-c2noc(C(F)(F)Cl)n2)cn1` [Compound I-78], the LogP in series [1] is 4.41^[a].

`FC(F)(F)c1nc(-c2cnc(Nc3ccon3)nc2)no1` [Compound I-57]: the LogP in series [1] was 2.50^[a].

Take `COc1cc(Nc2ncc(-c3noc(C(F)(F)F)n3)cn2)ccc1C` [Compound I-52]: the LogP in series [1] is 4.30^[a].

As to `FC(F)Oc1ccc(Nc2ncc(-c3noc(C(F)(F)F)n3)cn2)cc1` [Compound I-43], the LogP in series [1] was 3.92^[a].

As for `FC(F)(F)c1nc(-c2cnc(Nc3ccsc3)nc2)no1` [Compound I-58], the LogP in series [1] is 3.70^[a].

Regarding `Fc1ccccc1Nc1ncc(-c2noc(C(F)(F)Cl)n2)cn1` [Compound I-41], in series [1], the LogP is 3.94^[a].

With `COc1cccc(Nc2ncc(-c3noc(C(F)(F)Cl)n3)cn2)c1` [Compound I-80], the LogP in series [1] was 3.96^[a].

On to `FC(F)(Cl)c1nc(-c2cnc(Nc3ccc(S(F)(F)(F)(F)F)cc3)nc2)no1` [Compound I-83], for which the LogP in series [1] was 5.00^[a].

Regarding `FC(F)(Cl)c1nc(-c2cnc(NC3CC3C(F)(F)F)nc2)no1` (stereo not shown) [Compound I-09], the LogP in series [1] is 3.65^[a].

`COc1ccccc1Nc1ncc(-c2noc(C(F)(F)F)n2)cn1` [Compound I-54]: in series [1], the LogP was 4.18^[a].

On to `FC1(F)CC(Nc2ncc(-c3noc(C(F)(F)Cl)n3)cn2)C1` [Compound I-18], for which the LogP in series [1] was 3.48^[a].

For the molecule `FC1(F)CC(Nc2ncc(-c3noc(C(F)(F)F)n3)cn2)C1` [Compound I-32], the LogP in series [1] was 3.29^[a].

As to `FC(F)(Cl)c1nc(-c2cnc(NC3=NCCS3)nc2)no1` [Compound I-33], the LogP in series [1] was 1.26^[a].

(Values after US11266147B2, “Fungicidal oxadiazoles” (Bayer Aktiengesellschaft, priority 2017, dated 2022).)
